Reference: patent US20100125073A1, “BENZOFURAN AND BENZOTHIOPHENE DERIVATIVES USEFUL IN THE TREATMENT OF CANCERS OF THE CENTRAL NERVOUS SYSTEM” (priority 2006, published 2010)

How the values were obtained:
[1] = system: U118 MG (human glioblastoma/astrocytoma) cells; assay: Proliferation assay (CellTiter-Glo), U118 MG; assay type: cell-based; conditions: U-118-MG, n = 4
Method: (§1) SK-N-DZ (human neuroblastoma; ATCC# CRL-2149) or U118 MG (human glioblastoma/astrocytoma; ATCC# HTB-15) or U87 MG (human glioma; ATCC# HTB-14) or H4 (human neuroglioma; ATCC# HTB 178) cells are cultivated under standard conditions (RPMI 1640/Glutamax 2 mM/glucose 2 g/l/SoBicarbonate 2 g/1/10% FCS; 37° C. in 5% CO2 in a humid incubator). Cells are suspended using Accutase (PAA) and seeded at 1000 cells/Well in 100 μL medium/well in a 96-well plate (Greiner Kat. Nr. 655073). The test compound is added 24 Stunden after seeding. Commercial assays (CellTiter-Glo® Luminescent Cell Viability Assay; Promega Kat. Nr. G7571) are used 72 later according to the manufacturers instructions. IC50 is calculated using GraphPad Prism.
(§2) Compounds are solved in 100% DMSO and diluted 1:20 in medium before used diluted 1:10 in the test.

[2] = system: U87 MG (human glioma) cells; assay: Proliferation assay (CellTiter-Glo), U87 MG; assay type: cell-based; conditions: U-87 MG, n = 2
Method: as §1, §2

[3] = Crossing blood brain barrier in mice; assay type: in vivo, Male Ncr nude mice; conditions: 200 mg/kg orally for 14 days
Method: Male Ncr nude mice (n=3/time point) is treated for 14 days orally with a therapeutically relevant dose of example 153 (200 mg/kg) or a vehicle control (time: Oh). Daily treatment with a high dose like this is necessary to effectively treat subcutaneously transplanted tumors in these mice. After treatment, mice are sacrified at indicated time points, blood and brain tissue is removed and analysed. The method is as described above in example 2 under “Stability in rat and human plasma”. […] Mean brain concentrations are indicated as absolute concentration and relative to plasma concentration at similar time points (from the same experiment) in the table below.

[4] = system: SK-N-DZ (human neuroblastoma) cells; assay: Proliferation assay (CellTiter-Glo), SK-N-DZ; assay type: cell-based; conditions: 72 after compound addition, n = 4
Method: as §1, §2

[5] = system: H4 (human neuroglioma) cells; assay: Proliferation assay (CellTiter-Glo), H4; assay type: cell-based; conditions: n = 1
Method: as §1, §2

[6] = Solubility in aqueous 5% dextrose; assay type: physicochemical; conditions: for solubility thermodynamic at 24 h: saline or isotonic, thermodynamic from solid, 5% Dextrose
Method: The test compound is dissolved in an aqueous solution of 5% dextrose adjusted to the respective pH with 1n HCl. After shaking at room temperature for 24 h the probe is subjected to an ultra centrifugation process at 224000 g for 30 min. DMSO is added to the supernatant and the content of test compound is determined and quantified by HPLC employing a two point calibration curve of the test compound in DMSO.
HPLC Method: Agilent 1100 with DAD (G1315A), quat. Pump (G1311A), Autosampler CTC HTS PAL, Degaser (G1322A) and column thermostate (G1316A); Column: Zorbax Extend-C18 3.5μ; temperature: 40° C.; Eluent A: Water+5 ml Perchloric acid/1; Eluent B: Acetonitrile; flow rate: 0.7 mL/min; Gradient: 0-0.5 min 98% A, 2% B; Rampe: 0.5-4.5 min 10%, A 90% B; 4.5-6 min 10% A, 90% B; Rampe: 6.5-6.7 min 98% A, 2% B; 6.7-7.5 min 98% A, 2% B.

[7] = Stability in rat plasma; assay type: in vitro ADME; conditions: within 1 hour
[8] = Stability in human plasma; assay type: in vitro ADME; conditions: within 1 hour
[9] = Stability in buffer at different pH-values; assay type: physicochemical
Method: To determine the stability of test compounds at different pH-values 0.3 mg of the dry compound is dissolved in 0.5 ml of acetonitrile and the sample is sonified for 10 seconds. Then buffer solutions are added and the samples are sonified again.
pH 2: 0.03 M citric acid/0.0082 M hydrochloric acid/0.061 M sodium chloride pH 3: 0.04 M citric acid/0.021 M sodium hydroxide/0.06 M sodium chloride pH 4: 0.056 M citric acid/0.068 M sodium hydroxide/0.044 M Sodium chloride pH 5: 0.096 M citric acid/0.2 M sodium hydroxide pH 7: 0.029 M sodium hydroxide solution/0.05 M potassium dihydrogen phosphate pH 10: 0.013 M sodium tetraborate/0.018 M sodium hydroxide
The test compound concentrations in solution is analyzed by HPLC every hour during 24 hours at 37° C.
Agilent 1100 with DAD (G1314A), binary pump (G1312A), autosampler (G1329A), column thermostat (G1316A), thermostat (G1330A), Column: Kromasil 100 C18/60×2.1 mm/3.5 μm, Column temperature: 37° C., Eluent A: Water+5 ml perchloric acid/1, Eluent B: Acetonitrile, Gradient: 0-1.0 min 98% A, 2% B; 1.0-9.0 min 2% A, 98% B; 9.0-13.0 min 2% A, 98% B; 13.0-13.5 min 98% A, 2% B; 13.5-15.0 98% A, 2% B, Flow rate: 0.75 ml/min, Detection: 210 nm

With `CS(=O)(=O)NCc1cccc(-c2ccc3c(N)c(C(=O)c4ccc(Cl)cc4Cl)oc3c2)c1` [Example 153, N-{3-[3-amino-2-(2,4-dichlorobenzoyl)-1-benzofuran-6-yl]benzyl}methanesulfonamide] the IC50 [1] was 120 nM, the IC50 [2] was 320 nM and the “crossing of the blood brain barrier” value [3] was “crosses the blood brain barrier”. For the same compound, the “brain concentration % of Plasma concentration” value (from here on “brain concentration %”) ([3]; 0.167 h) was 9-19%, the “brain concentration %” value ([3]; 0.5 h) was 17-18% and the “brain concentration %” value ([3]; 1.5 h) was 12-90%. It also gave a concentration at 0.167 h ([3]; male, Ncr nude, mouse, brain, po, 0.167 h) of 600 ng/mL, a concentration at 0.5 h ([3]; male, Ncr nude, mouse, brain, po, 0.5 h) of 1400 ng/mL and a concentration at 1.5 h ([3]; male, Ncr nude, mouse, brain, po, 1.5 h) of 1000 ng/mL. For the same compound, the IC50 [4] was 110 nM and the IC50 [5] was 170 nM.
With `CC(C)[C@H](N)C(=O)N(Cc1cccc(-c2ccc3c(N)c(C(=O)c4ccc(Cl)cc4Cl)oc3c2)c1)S(C)(=O)=O.Cl` [Example 366, N-{3-[3-amino-2-(2,4-dichlorobenzoyl)-1-benzofuran-6-yl]benzyl}-N-(methylsulfonyl)-L-valinamide, hydrochloride] the “degradation during solubility determination” value ([6]; 5% dextrose, 24 h room temperature) was “no degradation has been observed”, the solubility thermodynamic at 24 h ([6]; aqueous 5% dextrose solution, pH 3, 24 h room temperature) was 360 µg/mL and the solubility thermodynamic at 24 h ([6]; aqueous 5% dextrose solution, pH 4, 24 h room temperature) was 350 µg/mL. The cleaved in plasma [7] was “more than 90%”, the cleaved in plasma [8] was “more than 90%” and the “Amount of remaining compound” value ([9]; buffer pH 2, after 24 h at 37° C.) was 100%. For the same compound, the “Amount of remaining compound” value ([9]; buffer pH 3, after 24 h at 37° C.) was 100%, the “Amount of remaining compound” value ([9]; buffer pH 4, after 24 h at 37° C.) was 94% and the “Amount of remaining compound” value ([9]; buffer pH 5, after 24 h at 37° C.) was 58%. The “Amount of remaining compound” value ([9]; buffer pH 7, after 24 h at 37° C.) was 4% and the “Amount of remaining compound” value ([9]; buffer pH 10, after 24 h at 37° C.) was 2%.
`CS(=O)(=O)NCc1cccc(-c2ccc3c(N)c(C(=O)c4ccc(Cl)cc4Cl)oc3c2)c1` [N-{3-[3-amino-2-(2,4-dichlorobenzoyl)-1-benzofuran-6-yl]benzyl}methanesulfonamide] showed a solubility at 24 h ([6]; aqueous 5% dextrose solution, parent compound, pH not stated) of less than 0.1 µg/mL.
